# Earlier results, collected in US6503745B1, “Cyclopentane and cyclopentene compounds and use for detecting influenza virus” (priority 1998, dated 2003).
# Like-named read-outs stand apart in the source and are kept apart here.
# Key:
# influenza [1] = conditions: in human volunteers
# influenza [2] = conditions: in animals
Compound,in vivo antiviral activity (influenza [1]),binder of influenza neuraminidase (influenza neuraminidase),in vivo antiviral activity (influenza [2])
"CC(=O)NC1C(NC(=N)N)C=C(C(=O)O)OC1[C@H](O)[C@H](O)CO (stereo partly shown) [GG167, 2,3-didehydro-2,4-dideoxy-4-guanidinyl-N-acetylneuraminic acid]",potent in vivo antiviral activity,potent binder,potent in vivo antiviral activity
"CCC(CC)O[C@@H]1C=C(C(=O)O)C[C@H](N)[C@H]1NC(C)=O [GS 4071, (3R,4R,5S)-4-acetamido-5-amino-3-(1-ethylpropoxy)-1-cyclohexene-1-carboxylic acid]",,potent binders,
